For one compound, inhibition and IC50 results are on record in patent US8853215B2, “Derivatives of N-acyl-N′-phenylpiperazine useful (inter alia) for the prophylaxis or treatment of diabetes” (Takeda Pharmaceutical Company Limited, priority 2009, dated 2014).

The assay deals with human RBP4 (Homo sapiens (Human), UniProt P02753). In words: Binding assay by Retinol-RBP4-TTR ELISA. The method in brief: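 Biotinylated human TTR was captured on streptavidin plates, then His-tagged human RBP4 was added with compound premixed with 50 nM retinol (8 doses). Binding ran 2 h at room temperature in 50 mM Tris-HCl, 150 mM NaCl, 0.005% Tween 20, 1 mM DTT, 0.1% BSA, read by luminescence. Inhibition was scaled between retinol+DMSO and retinol-free controls, and IC50 fitted.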
(In an ELISA, binding on a coated surface is turned into a signal by an enzyme label.)

A word on the IC50: it is the point on the concentration scale where inhibition reaches its midpoint. Regarding `CC(C)(C)c1ccccc1N1CCN(C(=O)C(=O)O)CC1` [Example 44, 2-[4-(2-tert-Butylphenyl)piperazin-1-yl]-2-oxoacetic acid], under “at 10 μM compound, read-out: human RBP4 binding inhibitory activity(% at 10 μM)”, the inhibition at 10 µM came out at 100%. Under “retinol 50 nM, His-tagged human RBP4, biotinylated human TTR, read-out: human RBP4 binding inhibitory activity (IC50 nM)”, the IC50 was 38 nM.
